One series deals with 5-HT2B (Homo sapiens, UniProt P41595). Put plainly: Off-target safety panel, 5-HT2B. The series is classed as binding. The note with it: duplicate, read-out: % Inhibition at 100 μM conc., 5-HT2B. The method, then:
(§1) Potential off-target pharmacology for compound 6 was also evaluated by screening in duplicate against a panel (Bowes, J., et al., Reducing Safety-Related Drug Attrition: The Use of in vitro Pharmacological Profiling. Nat. Rev. Drug Disc. 2012, 11, 909-922) of 44 receptors, enzymes, etc. Of the 44 potential targets, only five were inhibited by >50% at a concentration of 100 μM (Table 7).

Series [1] relates to S. aureus strain isolated from a cystic fibrosis patient. Description: MIC, CLSI broth microdilution, CF isolate. Format: cell-based. Particulars: Staphylococcus aureus; CLSI broth microdilution; read-out: MIC CF isolate.
Series [2] concerns Enterococcus faecium LSI-3340. Put plainly: MIC panel (Laboratory Specialists, Inc.), E. faecium LSI-3340. The series is classed as cell-based. The note with it: LSI3340, Cmpd. 6, vancomycin-resistant strain.
For series [3], the system named is Enterococcus faecalis ATCC 29212. Put plainly: MIC panel (Laboratory Specialists, Inc.), E. faecalis. The series is classed as cell-based. The note with it: ATCC29212, Cmpd. 6, CLSI broth microdilution.
For series [4], the system named is Streptococcus pyogenes LSI-1235. Put plainly: MIC panel (Laboratory Specialists, Inc.), S. pyogenes. The note with it: LSI1235, Cmpd. 6, CLSI broth microdilution. The series is classed as cell-based. A general note: Dilution methods test growth across graded concentrations, often in twofold steps.
In series [5] the test system is Enterobacter cloacae LSI-2943. Put plainly: MIC panel (Laboratory Specialists, Inc.), E. cloacae. The series is classed as cell-based. The note with it: LSI2943, Cmpd. 6, CLSI broth microdilution.
Series [6] deals with S. aureus ATCC 29213. Put plainly: microbe, parasite or virus in culture. The series is classed as cell-based. The note with it: Staphylococcus aureus, ATCC29213, read-out: S. aureus ATCC 29213 MIC (n = 2); CLSI agar dilution. The protocol: In order to determine the spontaneous mutation frequency of investigational agents (Table 4), the MIC was first determined using the agar dilution method as recommended by the Clinical and Laboratory Standards Institute.
Triplicate independent inocula of S. aureus ATCC 29213 were evaluated.
For orientation: In agar dilution the substance is mixed into plates at graded concentrations.

A further series has as its system Caco-2 cells. Format: in vitro ADME. Particulars: human, Caco-2, 10 μM, pH 7.4. The method, then: Caco-2 cells were plated on Transwell inserts and permeability assays were performed at day 21-25 post-plating. A single concentration of test compound (10 μM final) was prepared in HSS-HEPES buffer (pH 7.4) with a final DMSO concentration of 0.1%. To determine apical to basolateral (A to B) transport, test compounds were applied to the apical compartment in the presence and absence of the P-gp inhibitor verapamil (100 μM final). Atenolol and caffeine were assayed as control compounds. Samples were collected at various time points and analyzed using LC-MS/MS methods to determine the apparent permeability coefficient (Papp), efflux ratio, and recovery of the test compound.
Transport in the opposite direction (B to A) was also determined.

In the next series the test system is Nav site 2. Put plainly: Off-target safety panel, Nav site 2. The series is classed as binding. The note with it: duplicate. The protocol:
as §1

Another series has as its target Histamine H2 (Homo sapiens, UniProt P25021). Put plainly: Off-target safety panel, Histamine H2. Format: binding. Particulars: duplicate, read-out: % Inhibition at 100 μM conc., Histamine H2. The protocol: as §1
Another series addresses T1, CYP2C9 (Homo sapiens, UniProt P11712).
T1 construct: incubated with human liver microsomes (mixed gender, pool of 50 donors, 0.1 mg/mL); from tissue; host or cells: human liver microsomes, pool of 50 donors
Description: CYP450 inhibition in human liver microsomes, CYP2C9. The series is classed as in vitro ADME. The note with it: 10 μM. The protocol: (§2) CYP450 inhibition assays was conducted using individual enzyme substrates and inhibitors instead of a cocktail to avoid interferences. CYP450 isoforms tested included the following: CYP1A2, CYP2B6, CYP2C8, CYP2C9, CYP2C19, CYP2D6, and CYP3A4. Each test compound was screened at a final concentration of 10 μM. Each test compound was incubated with human liver microsomes (mixed gender, pool of 50 donors, 0.1 mg/mL), CYP450-selective probe substrates, and co-factors (NADPH, MgCl2) in phosphate buffer (pH 7.4) for 10-30 min in a 96-well plate at 37° C. The reactions were stopped by transferring the reaction mixture to acetonitrile/methanol. Samples were mixed and centrifuged, and the supernatants analyzed by LC-MS/MS to quantify percent inhibition relative to vehicle control.
Background: Microsomes from liver hold many membrane-bound enzymes, among them those of drug oxidation.

In series [7] the test system is S. aureus ATCC 29213. The series is classed as cell-based, Staphylococcus aureus. The note with it: S. aureus ATCC 29213.
The target of series [8] is Norepinephrine transporter (Homo sapiens, UniProt P23975). Description: Off-target safety panel, norepinephrine transporter. Particulars: duplicate, read-out: % Inhibition at 100 μM conc., Norepinephrine transporter. The series is classed as binding. The method, then: as §1
Sequence of Norepinephrine transporter (P23975 whole entry, species assumed): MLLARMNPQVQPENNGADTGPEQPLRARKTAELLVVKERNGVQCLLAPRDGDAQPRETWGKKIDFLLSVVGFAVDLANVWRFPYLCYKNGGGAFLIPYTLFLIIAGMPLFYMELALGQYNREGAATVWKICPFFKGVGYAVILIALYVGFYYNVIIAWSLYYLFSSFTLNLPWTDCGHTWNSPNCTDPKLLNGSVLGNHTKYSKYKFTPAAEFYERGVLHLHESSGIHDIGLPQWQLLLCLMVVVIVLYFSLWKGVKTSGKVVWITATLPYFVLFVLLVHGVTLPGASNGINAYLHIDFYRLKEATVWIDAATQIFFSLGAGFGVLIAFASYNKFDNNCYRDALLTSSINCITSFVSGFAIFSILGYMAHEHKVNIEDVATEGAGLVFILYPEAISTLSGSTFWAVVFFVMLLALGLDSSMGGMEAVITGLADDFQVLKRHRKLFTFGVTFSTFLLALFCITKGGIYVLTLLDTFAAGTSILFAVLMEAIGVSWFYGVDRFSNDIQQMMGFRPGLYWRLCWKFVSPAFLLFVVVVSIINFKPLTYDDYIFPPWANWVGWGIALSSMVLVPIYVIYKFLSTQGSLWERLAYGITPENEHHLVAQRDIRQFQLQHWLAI
The target of series [9] is T2, Nav 1.5 Human Sodium Ion Channel (Homo sapiens, UniProt Q14524).
T2 construct: expressed in transfected cells
T2 sequence (Q14524 whole entry): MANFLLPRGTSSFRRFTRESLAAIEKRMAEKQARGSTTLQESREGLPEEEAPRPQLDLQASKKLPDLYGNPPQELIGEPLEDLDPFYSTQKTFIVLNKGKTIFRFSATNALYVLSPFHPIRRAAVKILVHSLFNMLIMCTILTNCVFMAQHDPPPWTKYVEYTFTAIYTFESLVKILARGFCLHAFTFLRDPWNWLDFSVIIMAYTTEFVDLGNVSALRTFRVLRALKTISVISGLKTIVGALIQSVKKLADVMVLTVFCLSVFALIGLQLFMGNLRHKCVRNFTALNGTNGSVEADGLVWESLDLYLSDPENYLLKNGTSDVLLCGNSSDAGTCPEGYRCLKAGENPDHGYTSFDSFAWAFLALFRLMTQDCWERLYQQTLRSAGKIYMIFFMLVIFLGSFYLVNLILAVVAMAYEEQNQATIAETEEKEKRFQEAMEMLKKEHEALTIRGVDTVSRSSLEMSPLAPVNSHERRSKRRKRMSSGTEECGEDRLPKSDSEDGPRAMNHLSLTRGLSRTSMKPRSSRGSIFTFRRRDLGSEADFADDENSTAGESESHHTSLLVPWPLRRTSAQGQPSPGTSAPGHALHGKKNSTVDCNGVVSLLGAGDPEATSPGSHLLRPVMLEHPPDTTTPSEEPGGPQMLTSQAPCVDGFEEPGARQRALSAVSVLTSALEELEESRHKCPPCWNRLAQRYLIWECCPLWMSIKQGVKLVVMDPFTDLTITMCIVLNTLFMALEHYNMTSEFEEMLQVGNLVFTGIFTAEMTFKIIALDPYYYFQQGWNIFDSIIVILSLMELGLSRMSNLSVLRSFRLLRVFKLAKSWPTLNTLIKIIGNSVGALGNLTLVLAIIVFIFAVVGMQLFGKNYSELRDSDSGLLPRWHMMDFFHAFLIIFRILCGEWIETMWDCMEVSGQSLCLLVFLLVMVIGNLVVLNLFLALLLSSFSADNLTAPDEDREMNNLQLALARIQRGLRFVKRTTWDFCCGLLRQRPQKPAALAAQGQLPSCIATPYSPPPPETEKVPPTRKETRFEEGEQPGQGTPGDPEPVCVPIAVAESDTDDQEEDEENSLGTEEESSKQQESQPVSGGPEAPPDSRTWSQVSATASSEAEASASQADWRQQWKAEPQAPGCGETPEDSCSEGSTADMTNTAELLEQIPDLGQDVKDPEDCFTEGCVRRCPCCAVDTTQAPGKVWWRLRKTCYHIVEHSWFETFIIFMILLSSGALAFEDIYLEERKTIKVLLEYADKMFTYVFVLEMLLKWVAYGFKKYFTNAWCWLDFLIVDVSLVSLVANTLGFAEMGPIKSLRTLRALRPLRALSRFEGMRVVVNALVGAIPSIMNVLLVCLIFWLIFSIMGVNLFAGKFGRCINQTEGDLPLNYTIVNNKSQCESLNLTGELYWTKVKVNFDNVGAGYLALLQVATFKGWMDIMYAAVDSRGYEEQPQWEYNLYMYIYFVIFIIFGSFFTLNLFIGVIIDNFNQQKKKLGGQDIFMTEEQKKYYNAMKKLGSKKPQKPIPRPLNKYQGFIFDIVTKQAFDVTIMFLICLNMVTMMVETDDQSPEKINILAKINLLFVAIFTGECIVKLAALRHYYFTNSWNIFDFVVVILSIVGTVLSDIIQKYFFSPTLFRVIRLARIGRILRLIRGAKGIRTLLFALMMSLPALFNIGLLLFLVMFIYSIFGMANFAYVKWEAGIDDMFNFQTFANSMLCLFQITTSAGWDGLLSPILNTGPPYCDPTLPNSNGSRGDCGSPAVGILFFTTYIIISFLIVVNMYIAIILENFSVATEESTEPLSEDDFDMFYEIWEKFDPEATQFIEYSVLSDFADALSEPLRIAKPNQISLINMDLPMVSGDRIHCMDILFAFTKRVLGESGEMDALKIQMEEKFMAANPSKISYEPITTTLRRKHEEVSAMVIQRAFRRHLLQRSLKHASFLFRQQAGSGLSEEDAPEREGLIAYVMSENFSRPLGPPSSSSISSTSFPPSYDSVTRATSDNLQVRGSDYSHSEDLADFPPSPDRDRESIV
Put plainly: Nav 1.5 QPatch CiPA assay. Format: cell-based. The note with it: mean, duplicate. The source says: Early drug discovery programs commonly assess hERG inhibition as the only indicator of potential cardiovascular safety concerns. Researchers have recently recommended a more rigorous evaluation of multiple cardiac ion channels to provide a more comprehensive cardiovascular risk assessment (Fermini, B., et al., A New Perspective in the Field of Cardiac Safety Testing through the Comprehensive In Vitro Proarrhythmia Assay Paradigm. J. Biomolec. Screening 2016, 21, 1-11). Given the promising initial results for 6, further evaluation was undertaken (in duplicate) in a Comprehensive in vitro Proarrhythmia Assay (CiPA) eight assay panel run on the QPatch HT (Sophion, Denmark) automated patch clamp system at three concentrations (3, 30, and 100 μM). All data were filtered for seal quality, seal drop, and current amplitude. A stock solution of the test compound at 30 mM concentration was prepared in DMSO.
The parameters measured were the maximum inward current evoked on stepping to −15 mV from the test pulse. The peak current amplitude was calculated before and after compound addition and the amount of block was assessed by dividing the Test compound current amplitude by the Control current amplitude. Control is the mean hNav1.5 current amplitude collected 15 seconds at the end of the control; Test Compound is the mean hNav1.5 current amplitude collected in the presence of test compound at each concentration. The positive control compound was tetracaine.

The next series concerns the target T3, CYP1A2 (Homo sapiens, UniProt P05177).
T3 construct: incubated with human liver microsomes (mixed gender, pool of 50 donors, 0.1 mg/mL); from tissue; host or cells: human liver microsomes, pool of 50 donors
The series is classed as in vitro ADME. The note with it: 10 μM; human liver microsomes. The method, then:
as §2

For series [10] the following is noted: 100 μM. The protocol: as §1
Series [11] concerns Fluoroquinolone-resistant S. aureus (11 strains). Description: MIC90, panel of fluoroquinolone-resistant MRSA isolates. Format: cell-based, Staphylococcus aureus.

The values that follow come from US20230097866A1, “BACTERIAL TOPOISOMERASE INHIBITORS DERIVED FROM ISOMANNIDE” (Ohio State Innovation Foundation, priority 2020, published 2023).

In brackets after ≈: the same amount, converted by molar mass.

Sequence of Histamine H2 (P25021 whole entry): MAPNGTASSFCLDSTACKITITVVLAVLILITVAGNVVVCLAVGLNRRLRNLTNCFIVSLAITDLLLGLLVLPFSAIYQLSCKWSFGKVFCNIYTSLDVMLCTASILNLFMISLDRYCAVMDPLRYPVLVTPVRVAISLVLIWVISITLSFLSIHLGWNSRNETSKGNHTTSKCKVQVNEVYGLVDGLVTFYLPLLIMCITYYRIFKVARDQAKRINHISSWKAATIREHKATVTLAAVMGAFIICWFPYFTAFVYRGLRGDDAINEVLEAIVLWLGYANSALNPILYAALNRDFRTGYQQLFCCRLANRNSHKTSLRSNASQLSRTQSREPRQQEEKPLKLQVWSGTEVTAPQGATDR
Sequence of 5-HT2B (P41595 whole entry, species assumed): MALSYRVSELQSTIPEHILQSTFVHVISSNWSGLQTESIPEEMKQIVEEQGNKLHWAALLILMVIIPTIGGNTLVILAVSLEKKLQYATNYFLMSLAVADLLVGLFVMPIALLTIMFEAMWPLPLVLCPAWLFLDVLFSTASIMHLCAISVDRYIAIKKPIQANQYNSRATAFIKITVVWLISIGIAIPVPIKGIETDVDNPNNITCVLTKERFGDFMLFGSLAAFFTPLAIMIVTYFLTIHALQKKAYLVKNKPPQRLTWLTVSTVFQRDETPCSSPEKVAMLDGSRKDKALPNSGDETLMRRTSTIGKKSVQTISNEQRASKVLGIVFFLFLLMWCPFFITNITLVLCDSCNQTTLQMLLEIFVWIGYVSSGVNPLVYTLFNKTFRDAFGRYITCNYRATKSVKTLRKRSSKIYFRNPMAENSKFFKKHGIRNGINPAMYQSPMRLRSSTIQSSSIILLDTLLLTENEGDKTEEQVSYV
T1 sequence (P11712 whole entry): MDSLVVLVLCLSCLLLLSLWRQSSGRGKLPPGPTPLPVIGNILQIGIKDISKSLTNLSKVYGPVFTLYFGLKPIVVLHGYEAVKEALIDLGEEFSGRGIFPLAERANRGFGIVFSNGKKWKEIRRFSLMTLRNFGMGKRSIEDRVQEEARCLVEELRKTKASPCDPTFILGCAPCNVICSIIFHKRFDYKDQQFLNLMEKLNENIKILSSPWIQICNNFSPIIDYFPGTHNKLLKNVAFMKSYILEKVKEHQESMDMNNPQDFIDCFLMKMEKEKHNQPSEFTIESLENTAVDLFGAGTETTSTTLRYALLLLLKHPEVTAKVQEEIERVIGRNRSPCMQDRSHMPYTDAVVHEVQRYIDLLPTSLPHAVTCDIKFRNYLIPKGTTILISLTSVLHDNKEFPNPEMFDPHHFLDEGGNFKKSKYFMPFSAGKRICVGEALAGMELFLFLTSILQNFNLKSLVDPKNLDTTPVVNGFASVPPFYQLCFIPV
T3 sequence (P05177 whole entry): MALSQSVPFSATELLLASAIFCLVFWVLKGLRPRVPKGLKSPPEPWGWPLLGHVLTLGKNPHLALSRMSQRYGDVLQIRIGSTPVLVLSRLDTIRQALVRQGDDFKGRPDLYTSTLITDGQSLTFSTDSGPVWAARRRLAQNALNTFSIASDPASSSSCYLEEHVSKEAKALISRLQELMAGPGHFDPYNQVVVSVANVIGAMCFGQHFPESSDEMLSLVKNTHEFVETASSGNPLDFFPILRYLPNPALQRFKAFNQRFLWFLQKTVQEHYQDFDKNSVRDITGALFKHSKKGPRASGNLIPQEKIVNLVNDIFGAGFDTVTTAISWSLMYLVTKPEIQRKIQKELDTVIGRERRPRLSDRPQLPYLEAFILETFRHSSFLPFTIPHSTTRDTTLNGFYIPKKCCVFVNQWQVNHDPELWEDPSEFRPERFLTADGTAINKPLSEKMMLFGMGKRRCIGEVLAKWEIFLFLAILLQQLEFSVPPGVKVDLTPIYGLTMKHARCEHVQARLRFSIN

Broadly, the inhibition is the relative decrease from the control value, in per cent. As a reminder, the % Inhibition is the relative decrease from the control value, in per cent. Read a high % Inhibition as a response far below the control. A word on the MIC90: it is an inhibitory concentration at the 90% level, which refers to growth in some studies and to a panel of isolates in others. Turning to `COc1ccc2ncc(F)c(CC[C@@]3(O)CO[C@@H]4[C@@H](NCc5cc6c(cn5)OCCO6)CO[C@@H]43)c2n1` [Compound 6, (3R, 3aS,6S,6aR)-6-(((2,3-dihydro-[1,4]dioxino[2,36-c]pyridin-7-yl)methyl)amnino)-3-(2-(3-fluoro-6-methoxy-1,5-naphthyridin-4-yl)ethyl)hexahydrofuro[3,2-b]furan-3-ol], the inhibition at 100 µM on 5-HT2B was 95%; at Histamine H2, 51%; in series [8] it was 68%. Besides, the MIC was 2 µg/mL (≈ 4.01 µM) in [1]; 0.25 µg/mL (≈ 0.501 µM) in series [2]; 2 µg/mL (≈ 4.01 µM) in series [3]; at most 0.12 µg/mL in series [4]; 16 µg/mL (≈ 32.1 µM) in series [5]; 1 µg/mL (≈ 2.01 µM) in the series with S. aureus ATCC 29213 [6]. The “Caco-2 permeability A→B” value in the series with Caco-2 cells turned out to be 10.8 ×10⁻⁶ cm/s. For the same compound, the “Caco-2 permeability B→A” value in the series on Caco-2 cells amounted to 85.3 ×10⁻⁶ cm/s. Moreover, in the series with Nav site 2, the “% Inhibition at 100 μM conc., Nav site 2” value was determined as 78%. Moreover, on CYP2C9, the CYP2C9 inhibition result is “Less than 50%”. Further, in the series with S. aureus ATCC 29213 [7] (8X agar dilution MIC), the “Spontaneous mutation frequency (8X MIC)” value is 7.89 × 10^−8 (n = 1). In addition, in the series on S. aureus ATCC 29213 [7] (16X agar dilution MIC), the “Spontaneous mutation frequency (16X MIC)” value is recorded as 1.57 × 10^−9 (n = 1). In addition, the “% Inhibition Nav1.5 (peak current)” value turned out to be 6.1% in [9] (3 μM), 16.7% in series [9] (30 μM) and 21.1% in [9] (100 μM). Also, on CYP1A2, the CYP1A2 inhibition entry was “Less than 50%”. In [10], the “number of the 44 potential targets inhibited by >50%” value is “five”. The MIC90 in [11] (Staphylococcus aureus, Cmpd. 6, MIC90) was 2 µg/mL (≈ 4.01 µM). Further, the “MIC90 better than that of ciprofloxacin” value in series [11] (panel of fluoroquinolone-resistant MRSA isolates) turned out to be 16 fold.
